Measurements taken from ChEMBL document CHEMBL3046848, “Synthesis and biological evaluation of novel series of thieno[2,3-d]pyrimidine derivatives as anticancer and antimicrobial agents” (2013).
Converted amounts (≈) assume the structure as drawn.

Experiments:
Type in all cases: functional
SK-MEL-5 = assay: Anticancer activity against Homo sapiens (human) SK-MEL-5 cells after 48 hr by SRB assay; details: SK-MEL-5, 48 h
SNB-75 = assay: Anticancer activity against Homo sapiens (human) SNB75 cells after 48 hr by SRB assay; details: SNB-75, 48 h
SNB-19 = assay: Anticancer activity against Homo sapiens (human) SNB19 cells after 48 hr by SRB assay; details: SNB-19, 48 h
RXF 393 = assay: Growth inhibition of Homo sapiens (human) RXF393 cells at 10 uM after 48 hr by SRB assay; details: RXF 393, 48 h, read-out: GI
A498 = assay: Growth inhibition of Homo sapiens (human) A498 cells at 10 uM after 48 hr by SRB assay; details: A498, 48 h, read-out: GI
RPMI-8226 [1] = assay: Growth inhibition of Homo sapiens (human) RPMI8226 cells at 10 uM after 48 hr by SRB assay; details: RPMI-8226, 48 h, read-out: GI
CCRF-CEM = assay: Growth inhibition of Homo sapiens (human) CCRF-CEM cells at 10 uM after 48 hr by SRB assay; details: read-out: GI
HL-60(TB) = assay: Growth inhibition of Homo sapiens (human) HL-60(TB) cells at 10 uM after 48 hr by SRB assay; details: HL-60, 48 h, read-out: GI
OVCAR-8 = assay: Growth inhibition of Homo sapiens (human) OVCAR8 cells at 10 uM after 48 hr by SRB assay; details: OVCAR-8, 48 h, read-out: GI
MDA-MB-435 [2] = assay: Growth inhibition of Homo sapiens (human) MDA-MB-435 cells at 10 uM after 48 hr by SRB assay; details: MDA-MB-435, 48 h, read-out: GI
MCF7 = assay: Growth inhibition of Homo sapiens (human) MCF7 cells at 10 uM after 48 hr by SRB assay; details: MCF7, 48 h, read-out: GI
Hs-578T [3] = assay: Growth inhibition of Homo sapiens (human) Hs 578T cells at 10 uM after 48 hr by SRB assay; details: read-out: GI
SW-620 = assay: Growth inhibition of Homo sapiens (human) SW620 cells at 10 uM after 48 hr by SRB assay; details: SW-620, 48 h, read-out: GI
BT-549 = assay: Growth inhibition of Homo sapiens (human) BT549 cells at 10 uM after 48 hr by SRB assay; details: BT-549, 48 h, read-out: GI
Escherichia coli = assay: Antimicrobial activity against Escherichia coli ATCC8739 assessed as diameter of growth inhibition zone at 1 mg/ml after 24 hr by agar cup diffusion method; details: ATCC8739, 24 h, read-out: IZ
MDA-MB-468 = assay: Anticancer activity against Homo sapiens (human) MDA-MB-468 cells after 48 hr by SRB assay; details: MDA-MB-468, 48 h
MDA-MB-435 [4] = assay: Anticancer activity against Homo sapiens (human) MDA-MB-435 cells after 48 hr by SRB assay; details: MDA-MB-435, 48 h
Hs-578T [5] = assay: Anticancer activity against Homo sapiens (human) Hs 578T cells after 48 hr by SRB assay
DU-145 = assay: Anticancer activity against Homo sapiens (human) DU145 cells after 48 hr by SRB assay; details: DU-145, 48 h
UO-31 [6] = assay: Anticancer activity against Homo sapiens (human) UO31 cells after 48 hr by SRB assay; details: UO-31, 48 h
HCT-15 = assay: Growth inhibition of Homo sapiens (human) HCT15 cells at 10 uM after 48 hr by SRB assay; details: HCT-15, 48 h, read-out: GI
NCI-H322M = assay: Growth inhibition of Homo sapiens (human) NCI-H322M cells at 10 uM after 48 hr by SRB assay; details: read-out: GI
NCI-H23 [7] = assay: Growth inhibition of Homo sapiens (human) NCI-H23 cells at 10 uM after 48 hr by SRB assay; details: NCI-H23, 48 h, read-out: GI
HOP-62 = assay: Growth inhibition of Homo sapiens (human) HOP62 cells at 10 uM after 48 hr by SRB assay; details: HOP-62, 48 h, read-out: GI
A549 = assay: Growth inhibition of Homo sapiens (human) A549/ATCC cells at 10 uM after 48 hr by SRB assay; details: A549, 48 h, read-out: GI
Pseudomonas aeruginosa = assay: Antimicrobial activity against Pseudomonas aeruginosa ATCC9027 assessed as growth inhibition after 48 hr by two-fold serial dilution method; details: ATCC9027, 48 h
NCI-H23 [8] = assay: Anticancer activity against Homo sapiens (human) NCI-H23 cells after 48 hr by SRB assay; details: NCI-H23, 48 h
RPMI-8226 [9] = assay: Anticancer activity against Homo sapiens (human) RPMI8226 cells after 48 hr by SRB assay; details: RPMI-8226, 48 h
K562 = assay: Anticancer activity against Homo sapiens (human) K562 cells after 48 hr by SRB assay; details: K562, 48 h
MOLT-4 = assay: Anticancer activity against Homo sapiens (human) MOLT4 cells after 48 hr by SRB assay; details: MOLT-4, 48 h
OVCAR-5 = assay: Anticancer activity against Homo sapiens (human) OVCAR5 cells after 48 hr by SRB assay; details: OVCAR-5, 48 h
PC-3 = assay: Growth inhibition of Homo sapiens (human) PC3 cells at 10 uM after 48 hr by SRB assay; details: PC-3, 48 h, read-out: GI
UO-31 [10] = assay: Growth inhibition of Homo sapiens (human) UO31 cells at 10 uM after 48 hr by SRB assay; details: UO-31, 48 h, read-out: GI
SN12C = assay: Growth inhibition of Homo sapiens (human) SN12C cells at 10 uM after 48 hr by SRB assay; details: read-out: GI
[11] = read-out: LC50 (the source's name)

## Cc1c(C(N)=O)sc2nc(C)n(/N=c3\scc(-c4ccccc4)n3Cc3ccccc3)c(=O)c12
SK-MEL-5
  GI50: 1.81 µM
  TGI: 3.75 µM
SK-MEL-5; [11]
  CC50: 7.75 µM
SNB-75
  GI50: 2.8 µM
  TGI: > 100 µM
SNB-75; [11]
  CC50: > 100 µM
SNB-19
  GI50: 4.8 µM
  TGI: > 100 µM
SNB-19; [11]
  CC50: > 100 µM
RXF 393
  inhibition of growth at 10 µM: 105%
A498
  inhibition of growth at 10 µM: 99.3%
RPMI-8226 [1]
  inhibition of growth at 10 µM: 110%
CCRF-CEM
  inhibition of growth at 10 µM: 112%
HL-60(TB)
  inhibition of growth at 10 µM: 136%
OVCAR-8
  inhibition of growth at 10 µM: 85.3%
MDA-MB-435 [2]
  inhibition of growth at 10 µM: 87.8%
MCF7
  inhibition of growth at 10 µM: 82.7%
Hs-578T [3]
  inhibition of growth at 10 µM: 115%
SW-620
  inhibition of growth at 10 µM: 87.5%
BT-549
  inhibition of growth at 10 µM: 107%
Escherichia coli
  zone of inhibition at 1000 µg/mL: 15 mm
MDA-MB-468
  GI50: 2.65 µM
  TGI: > 100 µM
MDA-MB-468; [11]
  CC50: > 100 µM
MDA-MB-435 [4]
  GI50: 2.89 µM
  TGI: 12.5 µM
MDA-MB-435 [4]; [11]
  CC50: > 100 µM
Hs-578T [5]
  GI50: 3.85 µM
  TGI: > 100 µM
Hs-578T [5]; [11]
  CC50: > 100 µM
DU-145
  GI50: 3.9 µM
  TGI: > 100 µM
DU-145; [11]
  CC50: > 100 µM
UO-31 [6]
  GI50: 1.66 µM
  TGI: 7 µM
UO-31 [6]; [11]
  CC50: > 100 µM
HCT-15
  inhibition of growth at 10 µM: 85.1%
NCI-H322M
  inhibition of growth at 10 µM: 64.6%
NCI-H23 [7]
  inhibition of growth at 10 µM: 79.5%
HOP-62
  inhibition of growth at 10 µM: 75.8%
A549
  inhibition of growth at 10 µM: 100%
Pseudomonas aeruginosa
  MIC: 125 µg/mL (≈ 256 µM)
NCI-H23 [8]
  GI50: 3.12 µM
  TGI: > 100 µM
NCI-H23 [8]; [11]
  CC50: > 100 µM
RPMI-8226 [9]
  GI50: 13.9 µM
  TGI: > 100 µM
RPMI-8226 [9]; [11]
  CC50: > 100 µM
K562
  GI50: 8.89 µM
  TGI: > 100 µM
K562; [11]
  CC50: > 100 µM
MOLT-4
  GI50: 24.6 µM
  TGI: > 100 µM
MOLT-4; [11]
  CC50: > 100 µM
OVCAR-5
  GI50: 4.33 µM
  TGI: > 100 µM
OVCAR-5; [11]
  CC50: > 100 µM
PC-3
  inhibition of growth at 10 µM: 98%
UO-31 [10]
  inhibition of growth at 10 µM: 95.9%
SN12C
  inhibition of growth at 10 µM: 52.3%
